Tests used:
Format in all cases: in vivo
[1] = system: foxtail, giant (giant foxtail, Setaria faberii); assay: Test A greenhouse herbicide test, pre- and postemergence
Outline: (§1)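 Visual injury ratings, 0 (no effect) to 100 (complete control), versus untreated plants after roughly 10 d in a greenhouse. Compounds, formulated in a surfactant-containing non-phytotoxic solvent, were sprayed on loam–sand soil after sowing (pre) or on one- to two-leaf plants 2–10 cm tall (post).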

[2] = system: pigweed (Amaranthus retroflexus); assay: as above
Outline: as §1

[3] = system: wheat (Triticum aestivum); assay: as above; conditions: Postemergence
Outline: as §1

kochia (Kochia scoparia) = assay: as above
Outline: as §1

corn (Zea mays) = assay: as above; conditions: Postemergence
Outline: as §1

[4] = system: barnyardgrass (Echinochloa crus-galli); assay: as above
Outline: as §1

[5] = system: ryegrass, Italian (Italian ryegrass, Lolium multiflorum); assay: as above
Outline: as §1

[6] = system: ragweed (common ragweed, Ambrosia elatior); assay: as above
Outline: as §1

[7] = system: nutsedge, yellow (yellow nutsedge, Cyperus esculentus); assay: Test C greenhouse herbicide test, pre- and postemergence
Outline: (§2)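 Percent-control ratings (0 none, 100 complete) came from visual comparison with controls held alongside in the greenhouse for 13–15 d. Treatments covered soil application at sowing and foliar application to young plants 2–18 cm tall.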

[8] = system: lambsquarters (Chenopodium album); assay: as above
Outline: as §2

[9] = system: ryegrass, Italian (Italian ryegrass, Lolium multiflorum); assay: as above
Outline: as §2

[10] = Postemergence, 125 g ai/ha, 0 to 100 scale, 0 no effect, 100 complete control
[11] = Postemergence, 500 g ai/ha, visual rating after approx. 10 d, 0 to 100 scale (0 no effect, 100 complete control)
[12] = Preemergence, 125 g ai/ha, visual injury rating, 0 to 100 scale (0 no effect, 100 complete control), approx. 10 d
[13] = Preemergence, 500 g ai/ha, 0 to 100 scale where 0 is no effect and 100 is complete control
[14] = 125 g ai/ha, 0 to 100 scale, 0 no effect, 100 complete control
[15] = 500 g ai/ha, visual rating after approx. 10 d, 0 to 100 scale (0 no effect, 100 complete control)
[16] = Postemergence, 31 g ai/ha, scale 0 to 100 (0 no effect, 100 complete control)
[17] = Postemergence, 62 g ai/ha, 0 to 100 scale (0 no effect, 100 complete control)
[18] = Postemergence, 250 g ai/ha, scale 0 to 100, 0 no effect, 100 complete control, 13 to 15 d
[19] = postemergence, 125 g ai/ha, scale 0 to 100, 0 no effect, 100 complete control
[20] = Postemergence, 250 g ai/ha, scale 0 to 100, 0 is no effect, 100 is complete control
[21] = Preemergence, 31 g ai/ha, scale 0 to 100, 0 is no effect, 100 is complete control
[22] = Preemergence, 62 g ai/ha, scale 0 to 100, 0 is no effect, 100 is complete control
[23] = Preemergence, 125 g ai/ha, scale 0 to 100, 0 is no effect, 100 is complete control
[24] = Preemergence, 250 g ai/ha, scale 0 to 100 (0 no effect, 100 complete control)

## COC(=O)Oc1c(C)nn(C)c(=O)c1-c1c([N+](=O)[O-])ccc2ccccc12 [Compound 162]
[1]; [10]
  Plant response rating, Foxtail, Giant: 20
[1]; [11]
  Plant response rating, Foxtail, Giant: 40
[1]; [12]
  Plant response rating, Foxtail, Giant: 10
[1]; [13]
  Plant response rating, Foxtail, Giant: 40
[2]; [10]
  Plant response rating, Pigweed: 80
[2]; [11]
  Plant response rating, Pigweed: 90
[2]; [12]
  Plant response rating, Pigweed: 80
[2]; [13]
  Plant response rating, Pigweed: 90
[3]; [14]
  Plant response rating, Wheat: 0
[3]; [15]
  Plant response rating, Wheat: 20
Kochia (Kochia scoparia); [10]
  Plant response rating, Kochia: 70
Kochia (Kochia scoparia); [11]
  Plant response rating, Kochia: 90
Kochia (Kochia scoparia); [12]
  Plant response rating, Kochia: 60
Kochia (Kochia scoparia); [13]
  Plant response rating, Kochia: 90
Corn (Zea mays); [14]
  Plant response rating, Corn: 20
Corn (Zea mays); [15]
  Plant response rating, Corn: 30
[4]; [10]
  Plant response rating, Barnyardgrass: 20
[4]; [11]
  Plant response rating, Barnyardgrass: 50
[4]; [12]
  Plant response rating, Barnyardgrass: 10
[4]; [13]
  Plant response rating, Barnyardgrass: 20
[5]; [10]
  Plant response rating, Ryegrass, Italian: 60
[5]; [11]
  Plant response rating, Ryegrass, Italian: 90
[5]; [12]
  Plant response rating, Ryegrass, Italian: 40
[5]; [13]
  Plant response rating, Ryegrass, Italian: 100
[6]; [10]
  Plant response rating, Ragweed: 80
[6]; [11]
  Plant response rating, Ragweed: 100
[6]; [12]
  Plant response rating, Ragweed: 50
[6]; [13]
  Plant response rating, Ragweed: 90
[7]; [16]
  Plant response rating, Nutsedge, Yellow: 20
[7]; [17]
  Nutsedge, Yellow plant response rating: 25
[7]; [18]
  Plant response rating, Nutsedge, Yellow: 30
[7]; [19]
  Nutsedge, Yellow plant response rating: 30
[8]; [16]
  Plant response rating, Lambsquarters: 85
[8]; [17]
  Lambsquarters plant response rating: 95
[8]; [18]
  Plant response rating, Lambsquarters: 95
[8]; [19]
  Lambsquarters plant response rating: 90
[9]; [16]
  Plant response rating, Ryegrass, Italian: 60
[9]; [17]
  Ryegrass, Italian plant response rating: 70
[9]; [18]
  Plant response rating, Ryegrass, Italian: 80
[9]; [19]
  Ryegrass, Italian plant response rating: 70

## CC(=O)Oc1c(C)nn(C)c(=O)c1-c1c([N+](=O)[O-])ccc2ccccc12 [Compound 164]
[1]; [10]
  Plant response rating, Foxtail, Giant: 20
[1]; [11]
  Plant response rating, Foxtail, Giant: 30
[1]; [12]
  Plant response rating, Foxtail, Giant: 10
[1]; [13]
  Plant response rating, Foxtail, Giant: 40
[2]; [10]
  Plant response rating, Pigweed: 80
[2]; [11]
  Plant response rating, Pigweed: 80
[2]; [12]
  Plant response rating, Pigweed: 80
[2]; [13]
  Plant response rating, Pigweed: 100
[3]; [14]
  Plant response rating, Wheat: 0
[3]; [15]
  Plant response rating, Wheat: 0
Kochia (Kochia scoparia); [10]
  Plant response rating, Kochia: 60
Kochia (Kochia scoparia); [11]
  Plant response rating, Kochia: 90
Kochia (Kochia scoparia); [12]
  Plant response rating, Kochia: 60
Kochia (Kochia scoparia); [13]
  Plant response rating, Kochia: 100
Corn (Zea mays); [14]
  Plant response rating, Corn: 0
Corn (Zea mays); [15]
  Plant response rating, Corn: 20
[4]; [10]
  Plant response rating, Barnyardgrass: 20
[4]; [11]
  Plant response rating, Barnyardgrass: 20
[4]; [12]
  Plant response rating, Barnyardgrass: 10
[4]; [13]
  Plant response rating, Barnyardgrass: 20
[5]; [10]
  Plant response rating, Ryegrass, Italian: 70
[5]; [11]
  Plant response rating, Ryegrass, Italian: 90
[5]; [12]
  Plant response rating, Ryegrass, Italian: 60
[5]; [13]
  Plant response rating, Ryegrass, Italian: 100
[6]; [10]
  Plant response rating, Ragweed: 70
[6]; [11]
  Plant response rating, Ragweed: 100
[6]; [12]
  Plant response rating, Ragweed: 50
[6]; [13]
  Plant response rating, Ragweed: 90
[7]; [16]
  Plant response rating, Nutsedge, Yellow: 20
[7]; [17]
  Nutsedge, Yellow plant response rating: 20
[7]; [20]
  Plant response rating, Nutsedge, Yellow: 40
[7]; [19]
  Nutsedge, Yellow plant response rating: 25
[8]; [16]
  Plant response rating, Lambsquarters: 70
[8]; [17]
  Lambsquarters plant response rating: 85
[8]; [20]
  Plant response rating, Lambsquarters: 98
[8]; [19]
  Lambsquarters plant response rating: 85
[9]; [16]
  Plant response rating, Ryegrass, Italian: 50
[9]; [17]
  Ryegrass, Italian plant response rating: 60
[9]; [20]
  Plant response rating, Ryegrass, Italian: 85
[9]; [19]
  Ryegrass, Italian plant response rating: 80

## CSCC(=O)Oc1c(C)nn(C)c(=O)c1-c1cccc2ccccc12 [Compound 171]
[1]; [10]
  Plant response rating, Foxtail, Giant: 40
[1]; [11]
  Plant response rating, Foxtail, Giant: 90
[1]; [12]
  Plant response rating, Foxtail, Giant: 50
[1]; [13]
  Plant response rating, Foxtail, Giant: 100
[2]; [10]
  Plant response rating, Pigweed: 90
[2]; [11]
  Plant response rating, Pigweed: 100
[2]; [12]
  Plant response rating, Pigweed: 90
[2]; [13]
  Plant response rating, Pigweed: 100
[3]; [14]
  Plant response rating, Wheat: 30
[3]; [15]
  Plant response rating, Wheat: 70
Kochia (Kochia scoparia); [10]
  Plant response rating, Kochia: 100
Kochia (Kochia scoparia); [11]
  Plant response rating, Kochia: 100
Kochia (Kochia scoparia); [12]
  Plant response rating, Kochia: 100
Kochia (Kochia scoparia); [13]
  Plant response rating, Kochia: 100
Corn (Zea mays); [14]
  Plant response rating, Corn: 20
Corn (Zea mays); [15]
  Plant response rating, Corn: 40
[4]; [10]
  Plant response rating, Barnyardgrass: 40
[4]; [11]
  Plant response rating, Barnyardgrass: 90
[4]; [12]
  Plant response rating, Barnyardgrass: 70
[4]; [13]
  Plant response rating, Barnyardgrass: 100
[5]; [10]
  Plant response rating, Ryegrass, Italian: 100
[5]; [11]
  Plant response rating, Ryegrass, Italian: 100
[5]; [12]
  Plant response rating, Ryegrass, Italian: 100
[5]; [13]
  Plant response rating, Ryegrass, Italian: 100
[6]; [10]
  Plant response rating, Ragweed: 100
[6]; [11]
  Plant response rating, Ragweed: 100
[6]; [12]
  Plant response rating, Ragweed: 70
[6]; [13]
  Plant response rating, Ragweed: 90
[7]; [16]
  Plant response rating, Nutsedge, Yellow: 50
[7]; [17]
  Nutsedge, Yellow plant response rating: 75
[7]; [21]
  Plant response rating, Nutsedge, Yellow: 45
[7]; [22]
  Plant response rating, Nutsedge, Yellow: 55
[7]; [23]
  Plant response rating, Nutsedge, Yellow: 70
[7]; [24]
  Nutsedge, Yellow plant response rating: 90
[7]; [19]
  Nutsedge, Yellow plant response rating: 75
[8]; [16]
  Plant response rating, Lambsquarters: 90
[8]; [17]
  Lambsquarters plant response rating: 95
[8]; [20]
  Plant response rating, Lambsquarters: 100
[8]; [21]
  Plant response rating, Lambsquarters: 98
[8]; [22]
  Plant response rating, Lambsquarters: 95
[8]; [23]
  Plant response rating, Lambsquarters: 95
[8]; [24]
  Lambsquarters plant response rating: 100
[8]; [19]
  Lambsquarters plant response rating: 98
[9]; [16]
  Plant response rating, Ryegrass, Italian: 90
[9]; [17]
  Ryegrass, Italian plant response rating: 95
[9]; [20]
  Plant response rating, Ryegrass, Italian: 95
[9]; [21]
  Plant response rating, Ryegrass, Italian: 90
[9]; [22]
  Plant response rating, Ryegrass, Italian: 95
[9]; [23]
  Plant response rating, Ryegrass, Italian: 95
[9]; [19]
  Ryegrass, Italian plant response rating: 95

— patent US10597388B2, “Pyridazinone herbicides” (FMC CORPORATION, priority 2014, dated 2020)
